Measurements: patent US10758534B2 (Vertex Pharmaceuticals Incorporated, priority 2014, dated 2020)

target: T1, F508del (Homo sapiens, UniProt P13569, DEL508-508); assay: Protocol 1: membrane potential optical assay (FLIPR III, voltage sensing dye), identification of potentiator compounds; type: cell-based; conditions: Table 3, compounds of Table 1
T1 construct: expressed in transfected cells
Summary of the method: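 Mouse NIH 3T3 fibroblasts stably expressing F508del, temperature-corrected at 27 °C for 24 h, pretreated with compound, then loaded with voltage-sensing redistribution dye. Forskolin was added in a single step with a chloride gradient (chloride-free gluconate bath; Bath Solution #1 HEPES pH 7.4). Membrane-potential fluorescence read on FLIPR III.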

T1 sequence (P13569 with tags, fused parts or gaps DEL508-508): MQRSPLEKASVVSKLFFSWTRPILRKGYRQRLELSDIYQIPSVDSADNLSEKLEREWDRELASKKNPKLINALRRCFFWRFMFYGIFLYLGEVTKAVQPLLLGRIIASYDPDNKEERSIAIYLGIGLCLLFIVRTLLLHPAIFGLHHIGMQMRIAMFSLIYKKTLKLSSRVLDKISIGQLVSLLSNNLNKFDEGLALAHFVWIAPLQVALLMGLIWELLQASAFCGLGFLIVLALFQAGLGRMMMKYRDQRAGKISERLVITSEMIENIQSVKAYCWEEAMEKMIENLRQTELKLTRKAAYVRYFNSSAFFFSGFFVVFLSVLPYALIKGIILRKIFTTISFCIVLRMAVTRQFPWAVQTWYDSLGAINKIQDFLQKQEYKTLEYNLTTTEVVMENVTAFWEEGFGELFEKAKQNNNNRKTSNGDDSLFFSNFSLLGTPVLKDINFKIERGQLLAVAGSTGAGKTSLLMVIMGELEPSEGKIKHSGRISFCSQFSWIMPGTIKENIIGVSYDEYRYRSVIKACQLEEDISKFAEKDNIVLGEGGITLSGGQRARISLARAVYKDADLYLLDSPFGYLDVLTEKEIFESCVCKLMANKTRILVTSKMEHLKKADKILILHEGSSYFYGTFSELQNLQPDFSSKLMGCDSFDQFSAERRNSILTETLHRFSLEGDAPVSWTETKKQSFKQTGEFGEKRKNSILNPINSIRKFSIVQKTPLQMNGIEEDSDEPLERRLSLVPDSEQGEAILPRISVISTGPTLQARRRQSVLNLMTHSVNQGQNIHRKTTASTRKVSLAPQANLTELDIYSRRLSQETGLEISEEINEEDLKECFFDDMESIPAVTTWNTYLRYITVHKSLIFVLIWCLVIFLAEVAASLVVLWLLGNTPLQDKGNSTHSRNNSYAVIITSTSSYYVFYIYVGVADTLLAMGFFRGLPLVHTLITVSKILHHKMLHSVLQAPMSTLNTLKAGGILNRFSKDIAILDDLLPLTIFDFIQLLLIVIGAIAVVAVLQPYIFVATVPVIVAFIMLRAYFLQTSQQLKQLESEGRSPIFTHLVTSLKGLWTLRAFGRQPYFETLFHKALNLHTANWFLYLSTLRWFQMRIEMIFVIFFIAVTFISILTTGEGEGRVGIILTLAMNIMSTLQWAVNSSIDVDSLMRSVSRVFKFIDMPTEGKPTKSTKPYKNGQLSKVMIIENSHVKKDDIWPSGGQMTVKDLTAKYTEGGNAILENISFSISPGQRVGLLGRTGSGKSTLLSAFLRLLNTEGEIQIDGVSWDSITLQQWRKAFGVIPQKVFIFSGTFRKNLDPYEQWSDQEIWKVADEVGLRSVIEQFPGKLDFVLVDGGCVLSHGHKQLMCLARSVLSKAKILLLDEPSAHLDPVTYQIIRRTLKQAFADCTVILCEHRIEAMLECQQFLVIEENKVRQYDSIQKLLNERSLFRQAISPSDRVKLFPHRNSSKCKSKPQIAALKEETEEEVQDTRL

| EC30 | Compound |
| --- | --- |
| +++ (“+++” means <3 uM) | C[C@@H]1CN(c2nc(-c3ccccc3F)ccc2C(=O)NS(=O)(=O)c2cccnc2N)C(C)(C)C1 [Compound 1790, N-[(2-amino-3-pyridyl)sulfonyl]-6-(2-fluorophenyl)-2-[(4S)-2,2,4-trimethylpyrrolidin-1-yl]pyridine-3-carboxamide] |
| +++ (“+++” means <3 uM) | C[C@@H]1CN(c2nc(-c3cccc(Cl)c3)ccc2C(=O)NS(=O)(=O)c2ccc[nH]c2=O)C(C)(C)C1 [Compound 1791, 6-(3-chlorophenyl)-N-[(2-oxo-1H-pyridin-3-yl)sulfonyl]-2-[(4S)-2,2,4-trimethylpyrrolidin-1-yl]pyridine-3-carboxamide] |
| +++ (“+++” means <3 uM) | COc1ccc(-c2cnc(N3CC(C)CC3(C)C)c(C(=O)NS(=O)(=O)c3cccc(N)n3)c2)cc1 (stereo not shown) [Compound 1792, N-[(6-amino-2-pyridyl)sulfonyl]-5-(4-methoxyphenyl)-2-(2,2,4-trimethylpyrrolidin-1-yl)pyridine-3-carboxamide] |
| +++ (“+++” means <3 uM) | C[C@@H]1CN(c2nc(C3CC(C)(C)CCC3=O)ccc2C(=O)NS(=O)(=O)c2cccnc2N)C(C)(C)C1 (stereo partly drawn) [Compound 1793, N-[(2-amino-3-pyridyl)sulfonyl]-6-(5,5-dimethyl-2-oxo-cyclohexyl)-2-[(4S)-2,2,4-trimethylpyrrolidin-1-yl]pyridine-3-carboxamide] |
| ++ (“++” means between 3 uM and 10 uM) | CC1(C)C(CC2CC2)CCN1c1ncccc1C(=O)NS(=O)(=O)c1cccc(N)n1 (stereo not shown) [Compound 1794, N-[(6-amino-2-pyridyl)sulfonyl]-2-[3-(cyclopropylmethyl)-2,2-dimethyl-pyrrolidin-1-yl]pyridine-3-carboxamide] |
| +++ (“+++” means <3 uM) | CCOc1cc(C)cc(-c2ccc(C(=O)NS(=O)(=O)c3cccnc3N)c(Oc3c(C)cc(C)cc3C)n2)n1 [Compound 1795, N-[(2-amino-3-pyridyl)sulfonyl]-6-(6-ethoxy-4-methyl-2-pyridyl)-2-(2,4,6-trimethylphenoxy)pyridine-3-carboxamide] |
| +++ (“+++” means <3 uM) | CC1CN(c2ncccc2C(=O)NS(=O)(=O)c2cccc(Nc3cc(F)c(F)cc3F)n2)C(C)(C)C1 (stereo not shown) [Compound 1796, N—[[6-(2,4,5-trifluoroanilino)-2-pyridyl]sulfonyl]-2-(2,2,4-trimethylpyrrolidin-1-yl)pyridine-3-carboxamide] |
| +++ (“+++” means <3 uM) | Cc1cccc(C)c1Oc1nc(-c2cc(F)cc(OCC(C)CO)c2)ccc1C(=O)NS(=O)(=O)c1cccc(N)n1 (stereo not shown) [Compound 1797, N-[(6-amino-2-pyridyl)sulfonyl]-2-(2,6-dimethylphenoxy)-6-[3-fluoro-5-(3-hydroxy-2-methyl-propoxy)phenyl]pyridine-3-carboxamide] |
| +++ (“+++” means <3 uM) | CC1CN(c2ncccc2C(=O)NS(=O)(=O)c2cccc(OCc3ccccc3F)n2)C(C)(C)C1 (stereo not shown) [Compound 1798, N—[[6-[(2-fluorophenyl)methoxy]-2-pyridyl]sulfonyl]-2-(2,2,4-trimethylpyrrolidin-1-yl)pyridine-3-carboxamide] |
| +++ (“+++” means <3 uM) | C[C@@H]1CN(c2nc(-c3ccc(C(F)(F)F)cc3)ccc2C(=O)NS(=O)(=O)c2ccc[nH]c2=O)C(C)(C)C1 [Compound 1799, N-[(2-oxo-1H-pyridin-3-yl)sulfonyl]-6-[4-(trifluoromethyl)phenyl]-2-[(4S)-2,2,4-trimethylpyrrolidin-1-yl]pyridine-3-carboxamide] |
| +++ (“+++” means <3 uM) | CC1CN(c2ncccc2C(=O)NS(=O)(=O)c2cccc(OCCC3CCCCC3)n2)C(C)(C)C1 (stereo not shown) [Compound 1800, N—[[6-(2-cyclohexylethoxy)-2-pyridyl]sulfonyl]-2-(2,2,4-trimethylpyrrolidin-1-yl)pyridine-3-carboxamide] |
| +++ (“+++” means <3 uM) | COc1c(F)cc(-c2ccc(C(=O)NS(=O)(=O)c3ccc[nH]c3=O)c(N3C[C@@H](C)CC3(C)C)n2)cc1F [Compound 1801, 6-(3,5-difluoro-4-methoxy-phenyl)-N-[(2-oxo-1H-pyridin-3-yl)sulfonyl]-2-[(4S)-2,2,4-trimethylpyrrolidin-1-yl]pyridine-3-carboxamide] |
| +++ (“+++” means <3 uM) | CCOc1cccc(-c2ccc(C(=O)NS(=O)(=O)c3ccc[nH]c3=O)c(N3C[C@@H](C)CC3(C)C)n2)c1F [Compound 1802, 6-(3-ethoxy-2-fluoro-phenyl)-N-[(2-oxo-1H-pyridin-3-yl)sulfonyl]-2-[(4S)-2,2,4-trimethylpyrrolidin-1-yl]pyridine-3-carboxamide] |
| +++ (“+++” means <3 uM) | C[C@@H]1CN(c2nc(-c3ccc4ccccc4c3)ccc2C(=O)NS(=O)(=O)c2ccc[nH]c2=O)C(C)(C)C1 [Compound 1803, 6-(2-naphthyl)-N-[(2-oxo-1H-pyridin-3-yl)sulfonyl]-2-[(4S)-2,2,4-trimethylpyrrolidin-1-yl]pyridine-3-carboxamide] |
| +++ (“+++” means <3 uM) | CC1CN(c2ncc(-c3cccc(OC(C)C)c3)cc2C(=O)NS(=O)(=O)c2cccc(N)n2)C(C)(C)C1 (stereo not shown) [Compound 1804, N-[(6-amino-2-pyridyl)sulfonyl]-5-(3-isopropoxyphenyl)-2-(2,2,4-trimethylpyrrolidin-1-yl)pyridine-3-carboxamide] |
| ++ (“++” means between 3 uM and 10 uM) | COCC1CCCN(c2cccc(S(=O)(=O)NC(=O)c3cccnc3N3CC(C)CC3(C)C)n2)C1 (stereo not shown) [Compound 1805, N—[[6-[3-(methoxymethyl)-1-piperidyl]-2-pyridyl]sulfonyl]-2-(2,2,4-trimethylpyrrolidin-1-yl)pyridine-3-carboxamide] |
| +++ (“+++” means <3 uM) | CC1CN(c2ncccc2C(=O)NS(=O)(=O)c2cccc(Oc3ccc(Cl)cc3Cl)n2)C(C)(C)C1 (stereo not shown) [Compound 1806, N—[[6-(2,4-dichlorophenoxy)-2-pyridyl]sulfnyl]-2-(2,2,4-trimethylpyrrolidin-1-yl)pyridine-3-carboxamide] |
| +++ (“+++” means <3 uM) | C[C@@H]1CN(c2nc(-c3ccc(F)cc3)ccc2C(=O)NS(=O)(=O)c2ccc[nH]c2=O)C(C)(C)C1 [Compound 1807, 6-(4-fluorophenyl)-N-[(2-oxo-1H-pyridin-3-yl)sulfonyl]-2-[(4S)-2,2,4-trimethylpyrrolidin-1-yl]pyridine-3-carboxamide] |
| +++ (“+++” means <3 uM) | CCOc1cc(F)ccc1-c1ccc(C(=O)NS(=O)(=O)c2cccnc2N)c(N2C[C@@H](C)CC2(C)C)n1 [Compound 1808, N-[(2-amino-3-pyridyl)sulfonyl]-6-(2-ethoxy-4-fluoro-phenyl)-2-[(4S)-2,2,4-trimethylpyrrolidin-1-yl]pyridine-3-carboxamide] |
| +++ (“+++” means <3 uM) | CC1CN(c2ncc(-c3ccc(C(C)C)cc3)cc2C(=O)NS(=O)(=O)c2cccc(N)n2)C(C)(C)C1 (stereo not shown) [Compound 1809] |
| +++ (“+++” means <3 uM) | CC1CN(c2nc(OC(C)C(C)C)c(F)cc2C(=O)NS(=O)(=O)c2cccc(N)n2)C(C)(C)C1 (stereo not shown) [Compound 1810, N-[(6-amino-2-pyridyl)sulfonyl]-6-(1,2-dimethylpropoxy)-5-fluoro-2-(2,2,4-trimethylpyrrolidin-1-yl)pyridine-3-carboxamide] |
| +++ (“+++” means <3 uM) | Cc1ccc(-c2ccc(C(=O)NS(=O)(=O)c3ccc[nH]c3=O)c(N3C[C@@H](C)CC3(C)C)n2)c2ccccc12 [Compound 1811, 6-(4-methyl-1-naphthyl)-N-[(2-oxo-1H-pyridin-3-yl)sulfonyl]-2-[(4S)-2,2,4-trimethylpyrrolidin-1-yl]pyridine-3-carboxamide] |
| ++ (“++” means between 3 uM and 10 uM) | CCOCCOCCOc1cc(-c2ccc(C(=O)NS(=O)(=O)c3cccc(N)n3)c(N3C[C@@H](C)CC3(C)C)n2)cc(C)n1 [Compound 1812, N-[(6-amino-2-pyridyl)sulfonyl]-6-[2-[2-(2-ethoxyethoxy)ethoxy]-6-methyl-4-pyridyl]-2-[(4S)-2,2,4-trimethylpyrrolidin-1-yl]pyridine-3-carboxamide] |
| +++ (“+++” means <3 uM) | CC1CN(c2ncccc2C(=O)NS(=O)(=O)c2cccc(Oc3ccc(F)cc3)n2)C(C)(C)C1 (stereo not shown) [Compound 1813, N—[[6-(4-fluorophenoxy)-2-pyridyl]sulfonyl]-2-(2,2,4-trimethylpyrrolidin-1-yl)pyridine-3-carboxamide] |
| +++ (“+++” means <3 uM) | CC1CN(c2ncccc2C(=O)NS(=O)(=O)c2cccc(NCc3ccc4c(c3)OCO4)n2)C(C)(C)C1 (stereo not shown) [Compound 1814, N—[[6-(1,3-benzodioxol-5-ylmethylamino)-2-pyridyl]sulfonyl]-2-(2,2,4-trimethylpyrrolidin-1-yl)pyridine-3-carboxamide] |
| +++ (“+++” means <3 uM) | CC1CN(c2ncc(-c3cc(OC(C)C)cc(C(F)(F)F)c3)cc2C(=O)NS(=O)(=O)c2cccc(N)n2)C(C)(C)C1 (stereo not shown) [Compound 1815, N-[(6-amino-2-pyridyl)sulfonyl]-5-[3-isopropoxy-5-(trifluoromethyl)phenyl]-2-(2,2,4-trimethylpyrrolidin-1-yl)pyridine-3-carboxamide] |
| +++ (“+++” means <3 uM) | CC1CN(c2ncccc2C(=O)NS(=O)(=O)c2cccc(N3CCN(c4ccccn4)CC3)n2)C(C)(C)C1 (stereo not shown) [Compound 1816, N—[[6-[4-(2-pyridyl)piperazin-1-yl]-2-pyridyl]sulfonyl]-2-(2,2,4-trimethylpyrrolidin-1-yl)pyridine-3-carboxamide] |

| Compound | EC30 |
| --- | --- |
| CC(C)COc1cc(F)cc(-c2ccc(C(=O)NS(=O)(=O)N3CC4C[C@H]3CO4)c(N3C[C@@H](C)CC3(C)C)n2)c1 [Compound 1789, 6-(3-fluoro-5-isobutoxy-phenyl)-N—[[(4S)-2-oxa-5-azabicyclo[2.2.1]heptan-5-yl]sulfonyl]-2-[(4S)-2,2,4-trimethylpyrrolidin-1-yl]pyridine-3-carboxamide] | +++ (“+++” means <3 uM) |
